PMC9606102, “[^89Zr]Zr-PSMA-617 PET/CT in biochemical recurrence of prostate cancer: first clinical experience from a pilot study including biodistribution and dose estimates” (European Journal of Nuclear Medicine and Molecular Imaging, 2022)

Key:
prostate cancer lesions = assay: [^68Ga]Ga-PSMA-11 PET/CT findings in the same patients; format: in vivo, human (patients); settings: for SUVmax of undetermined finding: 1 h p.i.
Method: The time interval between both, [^89Zr]Zr-PSMA-617 and [^68Ga]Ga-PSMA-11 PET/CT, was 31 ± 18 days (range 5–49 days), with no treatment performed in between. Prostate-specific antigen (PSA) serum level at time of imaging ranged from 0.43 to 1.92 ng/ml. All patients were initially treated with radical prostatectomy (RP). Initial Gleason score ranged from 7a to 9. Four patients underwent salvage treatments such as androgen-deprivation therapy (ADT), lymphadenectomy (LA) or radiation therapy (RT). Detailed patient characteristics including age, Gleason score, primary therapy, salvage therapies, time from initial diagnosis (ID) of prostate cancer, PSA and PSA doubling time (DT) are presented in Table 1. [^89Zr]Zr-PSMA-617 PET/CT imaging was performed on a compassionate use basis under the German Pharmaceutical Act §13 (2b). The medical indication for the examination and the labeling of the tracer were under the direct responsibility of the applying physician. Patients gave their written consent after being thoroughly informed about the general risks of both radiation exposure and application of a novel PET tracer including possible adverse effects of, e.g., therapeutic PSMA tracers. Furthermore, all patients agreed to the publication of the resulting data in accordance with the Declaration of Helsinki.

[1] = parameters: method as in PMID 34326129; settings: cited from earlier work

O=C([O-])CN(CCN(CC(=O)[O-])Cc1cc(CCC(=O)NCCCCCC(=O)NCCCC[C@H](NC(=O)N[C@@H](CCC(=O)O)C(=O)O)C(=O)O)ccc1[O-])Cc1cc(CCC(=O)O)ccc1[O-].[68Ga+3].[OH3+] [[^68Ga]Ga-PSMA-11]
Findings on [^68Ga]Ga-PSMA-11 PET/CT (prostate cancer lesions; Pt. no 1, PSA 1.92 ng/ml): No suspicious findings
Findings on [^68Ga]Ga-PSMA-11 PET/CT (prostate cancer lesions; Pt. no 2, PSA 1.75 ng/ml): 1 × LNM + undetermined finding (suspicion of right iliac LNM)
Findings on [^68Ga]Ga-PSMA-11 PET/CT (prostate cancer lesions; Pt. no 3, PSA 0.66 ng/ml): No suspicious findings
Findings on [^68Ga]Ga-PSMA-11 PET/CT (prostate cancer lesions; Pt. no 4, PSA 1.77 ng/ml): Undetermined finding (suspicion of peritoneal metastasis)
Findings on [^68Ga]Ga-PSMA-11 PET/CT (prostate cancer lesions; Pt. no 5, PSA 0.63 ng/ml): No suspicious findings
Findings on [^68Ga]Ga-PSMA-11 PET/CT (prostate cancer lesions; Pt. no 6, PSA 0.43 ng/ml): Undetermined finding (suspicion of local recurrence in seminal vesicle bed)
Findings on [^68Ga]Ga-PSMA-11 PET/CT (prostate cancer lesions; Pt. no 7, PSA 0.68 ng/ml): No suspicious findings
SUVmax of undetermined finding (prostate cancer lesions; patient no. 2, pelvic tracer uptake, considered as unspecific uptake): 4.47
SUVmax of undetermined finding (prostate cancer lesions; patient no. 4, faint uptake in peritoneal lesion): 2.06

[^89Zr]Zr-PSMA-DFO
Effective dose [1]: 0.15 ± 0.04 mSv/MBq
